From patent US20220169680A1 (priority 2018, published 2022)

Assays:
Type in all cases: cell-based
[1] = system: 293T cells
[2] = system: A549 cells
[3] = system: A549 cells; remark: listed apart in the source
[4] = system: MRCS cells
[5] = system: HeLa cells
[6] = system: A549 cells; remark: listed apart in the source
[7] = system: A549 cells; remark: listed apart in the source
[8] = system: A549 cells; remark: listed apart in the source
[9] = system: 293T cell, HUVEC cell, HCT-116 cell, MKN-45 cell, MRCS cell, U397 cell and ESF-1 cell

Question: What does the source list for “DRLFFKCIYRRLKYRLKRRPST [Jilin-2004(H5N1)-M2-44-65 mut26]”?
Answer: cell-penetrating peptide function compared with the parent polypeptide [1]: stronger than that of the parent Jilin-2004(H5N1)-M2-44-65 polypeptide; ability to carry small RNA into cells compared with the transfection reagent RNAiMax group, qPCR [2]: stronger than the transfection reagent RNAiMax group; cell-penetrating peptide function compared with the parent polypeptide [3]: stronger than that of the parent Jilin-2004(H5N1)-M2-44-65 polypeptide

Question: How did the cell penetration properties [4] turn out when “FFKCIYRRLKYGLKRGPS [Jilin-2004(H5N1)-M2-47-64]” was run?
Answer: consistent with the results obtained using A549 cells

Question: And the cell penetration properties [5]?
Answer: consistent with the results obtained using A549 cells

Question: What about the cell entry [3] of the same substance?
Answer: entered A549 cells

Question: What about the “cell entry at lower concentrations” value [3] of the same substance?
Answer: could still enter A549 cells

Question: What about the “cell entry effect compared with TAT positive control” value [3] of the same substance?
Answer: stronger than that of the TAT polypeptide

Question: “RLFIKCIYRRLKYGLKRG [Jilin-2004(H5N1)-M2-45-62 mut48]” was tested. Which “cell-penetrating peptide function compared with the parent polypeptide (confocal imaging)” value [6] did it give?
Answer: stronger than that of the parent Jilin-2004(H5N1)-M2-45-62 polypeptide

Question: What about the “ability to carry small RNA into cells compared with the transfection reagent RNAiMax group, qPCR” value [2] of the same substance?
Answer: stronger than the transfection reagent RNAiMax group

Question: Which results are given for “DRLFFKCIYRRLKYGLKRGPST [Jilin-2004(H5N1)-M2-44-65]”?
Answer: cell-penetrating peptide function compared with positive control TAT [1]: stronger than that of the positive control TAT; cell-penetrating peptide function compared with positive control TAT [4]: stronger than that of the positive control TAT; carrying Cy3-labeled small RNA into cells [7]: can carry small RNA into cells; effect compared with transfection reagent RNAiMax [7]: stronger than that of the transfection reagent RNAiMax; carrying Cy3-labeled small RNA into cells (super high resolution microscope) [8]: can carry Cy3-labeled small RNA into A549 cells; effect compared with RNAiMax or TAT (super high resolution microscope) [8]: stronger than that of the transfection reagent RNAiMax or of TAT; entry effect compared with other fragments in different cell lines [9]: even better entry effects; ability to carry small RNA into cells compared with the transfection reagent RNAiMax group, qPCR [2]: stronger than the transfection reagent RNAiMax group; ability to carry small RNA into cells, qPCR [2]: all had the ability to carry small RNA into cells; cell entry effect compared with existing cell-penetrating peptides (Table 4) [3]: significantly better cell entry effects than existing cell-penetrating peptides; cell-penetrating peptide function compared with positive control TAT [3]: stronger cell-penetrating peptide functions than that of the positive control TAT; entry effect compared with other C-terminally truncated polypeptides [3]: even better entry effects than other polypeptides

Question: Which results are given for “RRFFFKCIYRRLKYGLKRGPST [Jilin-2004(H5N1)-M2-44-65 mut17]”?
Answer: cell-penetrating peptide function compared with the parent polypeptide [1]: stronger than that of the parent Jilin-2004(H5N1)-M2-44-65 polypeptide; ability to carry small RNA into cells compared with the transfection reagent RNAiMax group, qPCR [2]: stronger than the transfection reagent RNAiMax group

Question: How did the “cell-penetrating peptide function compared with the parent polypeptide (confocal imaging)” value [6] turn out when “SLFFKCIYRRLKYGLKRG [Jilin-2004(H5N1)-M2-45-62 mut45]” was run?
Answer: stronger than that of the parent Jilin-2004(H5N1)-M2-45-62 polypeptide

Question: And the “ability to carry small RNA into cells compared with the transfection reagent RNAiMax group, qPCR” value [2]?
Answer: stronger than the transfection reagent RNAiMax group

Question: What does the source list for “CIYRRLKYGLKRGPSTEG [Jilin-2004(H5N1)-M2-50-67]”?
Answer: cell penetration properties [4]: consistent with the results obtained using A549 cells; cell penetration properties [5]: consistent with the results obtained using A549 cells; cell entry [3]: entered A549 cells; cell entry at lower concentrations [3]: could still enter A549 cells

Question: With “KRGPSTAGVPESMREEYRQEQQN [A/HongKong/97/98(H5N1)-M2-N-M-AH(60-82)]” as the substance, how does the “cell entry of rhodamine-labeled polypeptide” value [6] read?
Answer: did not enter the cells

Question: “DRFFFKRIYRRLKYRLKRRPST [Jilin-2004(H5N1)-M2-44-65 mut8]” was tested. Which “cell-penetrating peptide function compared with the parent polypeptide” value [1] did it give?
Answer: stronger than that of the parent Jilin-2004(H5N1)-M2-44-65 polypeptide

Question: What about the “cell-penetrating peptide function compared with the parent polypeptide” value [4] of the same substance?
Answer: stronger than that of the parent Jilin-2004(H5N1)-M2-44-65 polypeptide

Question: What about the “ability to carry small RNA compared with the other two polypeptides tested” value [7] of the same substance?
Answer: even stronger

Question: What about the “carrying Cy3-labeled small RNA into cells” value [7] of the same substance?
Answer: can carry small RNA into cells

Question: And the “effect compared with transfection reagent RNAiMax” value [7]?
Answer: stronger than that of the transfection reagent RNAiMax

Question: And the “cell-penetrating peptide function compared with the parent polypeptide” value [3]?
Answer: stronger than that of the parent Jilin-2004(H5N1)-M2-44-65 polypeptide

Question: “RLFFKIIYRRLKYGLKRG [Jilin-2004(H5N1)-M2-45-62 mut50]” was tested. Which “cell-penetrating peptide function compared with the parent polypeptide (confocal imaging)” value [6] did it give?
Answer: stronger than that of the parent Jilin-2004(H5N1)-M2-45-62 polypeptide

Question: “DRFFFKRIYRRLKYRLKRRPKV [Jilin-2004(H5N1)-M2-44-65 mut9]” was tested. Which “cell-penetrating peptide function compared with the parent polypeptide” value [1] did it give?
Answer: stronger than that of the parent Jilin-2004(H5N1)-M2-44-65 polypeptide

Question: What about the “cell-penetrating peptide function compared with the parent polypeptide” value [4] of the same substance?
Answer: stronger than that of the parent Jilin-2004(H5N1)-M2-44-65 polypeptide

Question: What about the “cell-penetrating peptide function compared with the parent polypeptide” value [3] of the same substance?
Answer: stronger than that of the parent Jilin-2004(H5N1)-M2-44-65 polypeptide

Question: “KRGPSTEGVPESMREEYREEQQN [Caledonia/20/1999(H1N1)-M2-N-M-AH(60-82)]” was tested. Which “cell entry of rhodamine-labeled polypeptide” value [6] did it give?
Answer: did not enter the cells

Question: “RLFFRRIYRRLRYGLKRG [Jilin-2004(H5N1)-M2-45-62 mut3]” was tested. Which “cell-penetrating peptide function compared with the parent polypeptide (confocal imaging)” value [6] did it give?
Answer: stronger than that of the parent Jilin-2004(H5N1)-M2-45-62 polypeptide

Question: “RLFSKSIYR1FKHGLKRG [Caledonia/20/1999(H1N1)-M2-N-M-AH(45-62)]” was tested. Which “cell entry of rhodamine-labeled polypeptide” value [6] did it give?
Answer: could all enter A549 cells

Question: For “RLFFKCIYRRLKYGLKRG [A/HongKong/97/98(H5N1)-M2-N-M-AH(45-62)]”, which “cell entry of rhodamine-labeled polypeptide” value [6] is on record?
Answer: could all enter A549 cells

Question: How did the “ability to carry small RNA into cells compared with the transfection reagent RNAiMax group, qPCR” value [2] turn out when “DRKRRKCKYRRKKYGRKR [Jilin-2004(H5N1)-M2-44-61 mut14]” was run?
Answer: stronger than the transfection reagent RNAiMax group

Question: What about the “cell-penetrating peptide function compared with the parent polypeptide” value [3] of the same substance?
Answer: stronger than that of the parent Jilin-2004(H5N1)-M2-44-61 polypeptide

Question: How did the “cell-penetrating peptide function compared with the parent polypeptide” value [1] turn out when “DRLFFKRIYRRLKYRLKRRPST [Jilin-2004(H5N1)-M2-44-65 mut27]” was run?
Answer: stronger than that of the parent Jilin-2004(H5N1)-M2-44-65 polypeptide

Question: And the “ability to carry small RNA into cells compared with the transfection reagent RNAiMax group, qPCR” value [2]?
Answer: stronger than the transfection reagent RNAiMax group

Question: “DRFFFKRIFRRFKFRLKRRPST [Jilin-2004(H5N1)-M2-44-65 mut12]” was tested. Which “cell-penetrating peptide function compared with the parent polypeptide” value [1] did it give?
Answer: stronger than that of the parent Jilin-2004(H5N1)-M2-44-65 polypeptide

Question: What about the “cell-penetrating peptide function compared with the parent polypeptide” value [4] of the same substance?
Answer: stronger than that of the parent Jilin-2004(H5N1)-M2-44-65 polypeptide

Question: And the “cell-penetrating peptide function compared with the parent polypeptide” value [3]?
Answer: stronger than that of the parent Jilin-2004(H5N1)-M2-44-65 polypeptide

Question: Which “cell-penetrating peptide function compared with the parent polypeptide (confocal imaging)” value [6] does the source give for “RLFFRRIYRRLRYRLRRR [Jilin-2004(H5N1)-M2-45-62 mut6]” here?
Answer: stronger than that of the parent Jilin-2004(H5N1)-M2-45-62 polypeptide

Question: For “RLFFKCIYRRLKYGLKTG [Jilin-2004(H5N1)-M2-45-62 mut61]”, which “cell-penetrating peptide function compared with the parent polypeptide (confocal imaging)” value [6] is on record?
Answer: stronger than that of the parent Jilin-2004(H5N1)-M2-45-62 polypeptide

Question: And the “ability to carry small RNA into cells compared with the transfection reagent RNAiMax group, qPCR” value [2]?
Answer: stronger than the transfection reagent RNAiMax group

Question: “RLFFRRIYRRLKYGLKRG [Jilin-2004(H5N1)-M2-45-62 mut2]” was tested. Which “cell-penetrating peptide function compared with the parent polypeptide (confocal imaging)” value [6] did it give?
Answer: stronger than that of the parent Jilin-2004(H5N1)-M2-45-62 polypeptide

Question: For “RLFFRRIYRRLRYRLKRG [Jilin-2004(H5N1)-M2-45-62 mut4]”, which “cell-penetrating peptide function compared with the parent polypeptide (confocal imaging)” value [6] is on record?
Answer: stronger than that of the parent Jilin-2004(H5N1)-M2-45-62 polypeptide

Question: What does the source list for “RLFFRRIYRRLRYRLRRG [Jilin-2004(H5N1)-M2-45-62 mut5]”?
Answer: cell-penetrating peptide function compared with the parent polypeptide (confocal imaging) [6]: stronger than that of the parent Jilin-2004(H5N1)-M2-45-62 polypeptide; ability to carry small RNA into cells compared with the transfection reagent RNAiMax group, qPCR [2]: stronger than the transfection reagent RNAiMax group

Question: “DRLFFKCIYRRLKYGLKRRPST [Jilin-2004(H5N1)-M2-44-65 mut25]” was tested. Which “cell-penetrating peptide function compared with the parent polypeptide” value [1] did it give?
Answer: stronger than that of the parent Jilin-2004(H5N1)-M2-44-65 polypeptide

Question: What about the “cell-penetrating peptide function compared with the parent polypeptide” value [4] of the same substance?
Answer: stronger than that of the parent Jilin-2004(H5N1)-M2-44-65 polypeptide

Question: What about the “cell-penetrating peptide function compared with the parent polypeptide” value [3] of the same substance?
Answer: stronger than that of the parent Jilin-2004(H5N1)-M2-44-65 polypeptide

Question: What does the source list for “RLFFKCAYRRLKYGLKRG [Jilin-2004(H5N1)-M2-45-62 mut51]”?
Answer: cell-penetrating peptide function compared with the parent polypeptide (confocal imaging) [6]: stronger than that of the parent Jilin-2004(H5N1)-M2-45-62 polypeptide; ability to carry small RNA into cells compared with the transfection reagent RNAiMax group, qPCR [2]: stronger than the transfection reagent RNAiMax group

Question: “RFFFRRFFRRFRFRFRRR [Jilin-2004(H5N1)-M2-45-62 mut13]” was tested. Which “cell-penetrating peptide function compared with the parent polypeptide (confocal imaging)” value [6] did it give?
Answer: stronger than that of the parent Jilin-2004(H5N1)-M2-45-62 polypeptide
